# Laboratory results as given in BindingDB's records for patent US10364255 (Boehringer Ingleheim International, 2019).
# Target: T1, Pantetheinase [T26I] (Homo sapiens, UniProt O95497, T26I)
# T1 construct: gene VNN1
# Experiment: Enzymatic Assay
# Protocol: Method 1:Vanin-1 Enzymatic Assay:The test compounds are dissolved in 100% DMSO at a concentration of 10 mM and in a first step diluted in DMSO to a concentration of 5 mM, followed by serial dilution steps in 100% DMSO. Dilution factor and number of dilution steps may vary according to needs. Typically 8 different concentrations by 1:5 dilutions are prepared, a further intermediate dilutions of the substances is carried out with assay buffer resulting in 1% final DMSO concentration in the assay. 0.15 nM of FLAG-tagged Vanin-1 (AA 22-493, T26I, produced internally) and test compounds are incubated at room temperature for 15 minutes in assay buffer (1 mM DTT, 0.0025% Brij-35, 50 mM HEPES, pH7.5). 3 μM D-Pantethine (Sigma, Cat#P2125-5G) in assay buffer is added and incubated for additional 30 minutes at room temperature. Reaction is stopped by adding equal volume of stop solution as the reaction mixture to reach 5 nM Nevirapine (as an internal standard) and 0.5% TFA. Assay plates are centrifuged for 2 minutes and the formation of pantothenic acid is detected by RapidFire Mass Spectrometry (mobile phase A: 0.1% formic acid in water, mobile phase B: 100% methanol) using graphitic carbon cartridge (Agilent Cat #G9206A).
# T1 sequence (O95497 22-491 T26I limits assumed): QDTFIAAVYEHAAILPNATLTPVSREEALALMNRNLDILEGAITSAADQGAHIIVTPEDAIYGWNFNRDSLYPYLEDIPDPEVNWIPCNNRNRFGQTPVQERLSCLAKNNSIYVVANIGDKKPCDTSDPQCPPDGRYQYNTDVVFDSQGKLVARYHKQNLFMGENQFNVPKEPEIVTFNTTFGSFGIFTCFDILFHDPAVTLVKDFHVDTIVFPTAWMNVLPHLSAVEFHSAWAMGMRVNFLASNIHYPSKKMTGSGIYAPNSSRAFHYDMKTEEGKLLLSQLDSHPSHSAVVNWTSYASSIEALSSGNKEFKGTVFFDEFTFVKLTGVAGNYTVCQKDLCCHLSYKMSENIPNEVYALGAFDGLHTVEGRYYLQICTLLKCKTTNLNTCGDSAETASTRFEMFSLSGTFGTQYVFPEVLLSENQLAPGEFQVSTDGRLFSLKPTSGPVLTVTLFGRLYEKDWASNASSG
row,IC50 [nM],SMILES
1,8.1,"CC(=O)N(C)[C@H]1CCN(C(=O)c2cnc3c(c2)OCCN3)C1 [US10364255, Ex. 39]"
2,3.7,"O=C(c1cnc2c(c1)O[C@H](CO)CN2)N1CCC(c2ccncc2)C1 (stereo partly drawn) [US10364255, Ex. 43]"
3,1.7,"CC(=O)N(C)[C@H]1CCN(C(=O)c2cnc3c(c2)OCCCN3)C1 [US10364255, Ex. 44]"
4,2.5,"CC(=O)N(C)[C@H]1CCN(C(=O)c2cnc3c(c2)O[C@H](CO)CN3)C1 [US10364255, Ex. 41]"
5,2800,"O=C(c1cnc2c(c1)OCCN2)N1CCCCC1 [US10364255, Ex. 3]"
6,0.5,"CC(=O)N(C)[C@H]1CCN(C(=O)c2cnc3c(c2)OCC(C)(C)N3)C1 [US10364255, Ex. 14]"
7,14.2,"O=C(c1cnc2c(c1)OCCN2)N1CCC(c2ccncc2)C1 (stereo not drawn) [US10364255, Ex. 38]"
8,1.3,"CC(=O)N(C)[C@H]1CCN(C(=O)c2cnc3c(c2)O[C@H](C)CN3)C1 [US10364255, Ex. 32]"
